Patent US20040019018A1, “Rigid pyrrolidone modulators of pkc” (priority 2003, published 2004)
Several values for one entry are separate records, joined by “and”; a condition that tells them apart may be missing. Equal values may be shown once.

Columns and labels:
Assay in all cases: [3H]PDBu displacement from recombinant PKC isozyme (baculovirus)
Format in all cases: binding
Details in all cases: [3H]PDBu competition
α-PKC = target: T1, α-PKC (Homo sapiens, UniProt P17252)
T1 construct: made in house; host or cells: Sf9 cells (baculovirus)
Method: (§1) The ability of representative compounds of the invention to bind specific isozymes of PKC was determined using an assay (Example 13) in which displacement of [20-^3H]phorbol -12,13-dibutyrate ([^3H]PDBu) from either recombinant PKC isozymes prepared in a Baculovirus system, or unresolved mixture of isozymes of PKC isolated from whole brain extracts, was used. These procedures are described below. […] (See the key that follows)
(§2) Analysis of [20-^3H]phorbol 12,13-dibutyrate binding to PKC. Specific binding of [^3H]PDBu to PKC was carried out as described (Kazanietz, et al., Mol. Pharmacol. 44:298-307 (1993)). [^3H]PDBu (20.0 Ci/mmol) was obtained from New England Nuclear. Phosphatidylserine and bovine […] were obtained from Sigma Chemical Co. Binding was determined in an incubation volume of 250 μl, containing [^3H]PDBu, PKC, 0.05 M Tris-Cl, pH 7.4, 100 μg/ml phosphatidylserine, various concentrations of the ligand being assayed for competition of [^3H]PDBu binding, and bovine […] at 1 mg/ml. In the case of the classical PKCs (α, β, […]) CaCl2 was included at a concentration of 0.1 mM. Liposomes of phosphatidylserine were prepared as follows. The phosphatidylserine solutions were dried down from CHCl3 under a stream of N2. After addition of 0.05 M Tris-Cl, pH 7.4, liposomes were prepared by sonication for 30 sec with the microtip probe of Sonifier Cell Disrupter (Heat Systems-Ultrasonics). [^3H]PDBu was used at a concentration twice the Kd previously determined for the specific receptor. Ligands were assayed over a concentration range of 3 orders of magnitude. Ligands were diluted in 0.05 M Tris-Cl, pH 7.4 containing 1 mg/ml bovine g-globulin. If the compounds were not soluble at the highest concentration used, they were dissolved in organic solvent (CHCl3 or ethanol) and mixed with the phosphatidylserine dissolved in CHCl3. The solvent was removed under a stream of N2.
(§3) Mixed liposomes were then prepared, as described for the preparation of the liposomes of phosphatidylserine alone, by the addition of 0.05 M Tris-Cl, pH 7.4, and sonication for 30 sec with the microtip probe of a Sonifier Cell Disrupter (Heat Systems-Ultrasonics). Incubation was for 5 min at 37° C. The samples were then be cooled to 4° C. for 8 min and 200 μl of 35% polyethylene glycol in 0.05 M Tris-Cl, pH 7.4 (w:w) added. After vigorous mixing, the samples were incubated for 15 min to allow precipitation of the receptor. The precipitate was recovered by centrifugation at 12,000 rpm in a Beckman microcentrifuge at 4° C. A 100 μl aliquot of the supernatant was removed and its radioactivity determined in a Wallac liquid scintillation counter, Model 1409. This value provided a measure of the concentration of unbound [^3H]PDBu. The remainder of the supernatant was removed by aspiration and blotting with absorbent tissue. The tip of the centrifuge tube was cut off and the radioactivity in the pellet measured to determine total bound [^3H]PDBu. Non-specific binding of [^3H]PDBu was measured in the presence of 30 μM non-radioactive PDBu and used to determine an apparent partition coefficient for [^3H]PDBu under these assay conditions.
(§4) Specific binding represents the difference between total binding and the non-specific binding, where the latter value was calculated from the partition coefficient and the measured free [^3H]PDBu concentration in each tube. In each experiment, triplicate determinations were performed at each concentration of competing ligand.

ε-PKC = target: T2, ε-PKC (Homo sapiens, UniProt Q02156)
T2 sequence (Q02156 1-737): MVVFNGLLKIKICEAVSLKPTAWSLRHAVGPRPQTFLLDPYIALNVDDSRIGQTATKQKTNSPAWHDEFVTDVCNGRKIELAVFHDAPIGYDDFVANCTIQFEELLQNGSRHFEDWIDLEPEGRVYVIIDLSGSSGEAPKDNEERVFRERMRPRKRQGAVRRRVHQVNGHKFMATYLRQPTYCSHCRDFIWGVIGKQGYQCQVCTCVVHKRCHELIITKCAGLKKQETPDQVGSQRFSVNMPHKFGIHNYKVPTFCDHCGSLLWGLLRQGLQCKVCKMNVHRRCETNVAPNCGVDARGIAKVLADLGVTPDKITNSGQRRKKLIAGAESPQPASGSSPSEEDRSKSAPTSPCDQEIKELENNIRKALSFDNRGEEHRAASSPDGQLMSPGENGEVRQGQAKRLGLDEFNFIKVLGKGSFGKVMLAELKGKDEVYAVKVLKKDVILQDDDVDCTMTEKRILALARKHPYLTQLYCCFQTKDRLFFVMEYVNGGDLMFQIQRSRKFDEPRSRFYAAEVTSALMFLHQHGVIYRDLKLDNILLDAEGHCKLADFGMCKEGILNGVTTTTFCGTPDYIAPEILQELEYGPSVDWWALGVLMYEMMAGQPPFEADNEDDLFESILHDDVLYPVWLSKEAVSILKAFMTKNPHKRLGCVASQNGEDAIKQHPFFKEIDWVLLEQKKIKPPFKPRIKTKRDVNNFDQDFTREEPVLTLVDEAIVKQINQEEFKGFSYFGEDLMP
Method: as §1, §2, §3, §4

γ-PKC = target: T3, γ-PKC (Homo sapiens, UniProt P05129)
T3 construct: made in house; host or cells: Sf9 cells (baculovirus)
Method: as §1, §2, §3, §4

| SMILES | Ki (α-PKC) [nM] | Ki (ε-PKC) | Ki (γ-PKC) [nM] |
| --- | --- | --- | --- |
| CCCCCCCCCCCC(=O)Oc1cc2c(cc1Br)[C@@H]1[C@@H](CO)NC(=O)[C@@H]1[C@]2(C)C(C)C [Compound 5, (3S, 8S, 9S, 10S)-5-bromo-6-dodecanoyloxyl-3-hydroxymethyl-8-isopropyl-8-methyl-3,3a,8,8a-tetrahydro-2H -2-aza-cyclopenta[a]inden-1-one] | 2980 ± 1040 | 1300 ± 377 nM | 1230 ± 258 |
| CCCCCCCCCCCC(=O)Oc1ccc2c(c1)[C@](C)(C(C)C)[C@H]1C(=O)N[C@H](CO)[C@@H]21 [Compound 2, (3S, 8R, 9S, 10S)-6-dodecanoyloxyl-3-hydroxymethyl-8-isopropyl-8-methyl-3,3a,8,8a-tetrahydro-2H -2-aza-cyclopenta[a]inden-1-one] | 395 ± 71 | 515 ± 155 nM | 209 ± 38 |
| CCCCCCCCCCCC(=O)Oc1cc2c(cc1C(C)=O)[C@@H]1[C@@H](CO)NC(=O)[C@@H]1[C@]2(C)C(C)C [Compound 4, (3S, 8S, 9S, 10S)-5-acetyl-6-dodecanoyloxyl-3-hydroxymethyl-8-isopropyl-8-methyl-3,3a,8,8a-tetrahydro-2H -2-aza-cyclopenta[a]inden-1-one] | 2250 ± 585 | 5100 ± 3110 nM | 3650 ± 1090 |
| CCCCCCCCC#Cc1ccc2c(c1)C(C)(C(C)C)C1C(=O)NC(CO)C21 [Compound 1, (3S, 8R, 9S, 10S)-6-(dec-1′-ynyl)-3-hydroxymethyl-8-isopropyl-8-methyl-3,3a,8,8a-tetrahydro-2H-2-aza-cyclopenta[a]inden-1-one] | 580 ± 214 | 469 nM and 946 nM | 279 ± 50 |
| CCCCCCCCCCCC(=O)Oc1ccc2c(c1)[C@@](C)(C(C)C)[C@H]1C(=O)N[C@H](CO)[C@@H]21 [Compound 3, (3S, 8S, 9S, 10S)-6-dodecanoyloxyl-3-hydroxymethyl-8-isopropyl-8-methyl-3,3a,8,8a-tetrahydro-2H -2-aza-cyclopenta[a]inden-1-one] | 674 ± 249 | 228 ± 43 nM | 327 ± 65 |
| CCCCCCCCCCCC(=O)Oc1cc2c(cc1C(C)=O)[C@@H]1[C@@H](CO)NC(=O)[C@@H]1[C@@]2(C)C(C)C [Compound 11, (3S, 8R, 9S, 10S)-5-acetyl-6-dodecanoyloxyl-3-hydroxymethyl-8-isopropyl-8-methyl-3,3a,8,8a-tetrahydro-2H -2-aza-cyclopenta[a]inden-1-one] | > 10000 | > 10000 nM | > 10000 |
